Tests used:
VGLUT1+ puncta = assay: VGLUT1 immunostaining of dorsal hippocampus after neonatal HI; format: in vivo, mouse; settings: between groups or hemispheres
Method: Neuronal nuclei (NeuN), growth associated protein 43 (GAP-43), synapsin I (SYN), vesicular glutamate transporter 1 (VGLUT1), Glial Fibrillary Acidic Protein (GFAP) and ionized calcium-binding adapter molecule 1 (Iba-1) were visualized in the cornu ammonis (CA) and dentate gyrus (DG) of the dorsal hippocampus by immunohistochemistry. Briefly, following heat-induced antigen retrieval with 0.01 M citrate buffer (pH 6, 0.05% Tween 20) for 3×5 min, sections were washed 3×5 min with PBS-T (0.05% Tween 20), non-specific protein binding was reduced by incubation with blocking buffer [4% normal donkey serum (NeuN and Iba-1), 1% bovine serum albumin (GAP-43 and SYN), 3% normal goat serum (VGLUT1), 2% bovine serum albumin (GFAP) in PBS-T] for 1 h at room temperature (RT). […]
NeuN positive cells, GFAP positive relative area, as well as GAP-43, SYN, and VGLUT1 positive puncta were counted by using MetaMorph software (ver. 7.8.6, Molecular Devices, CA, USA) on confocal images obtained with a 20× (NeuN and GFAP) or 63× (GAP-43, SYN, and VGLUT1) objective (Carl Zeiss LSM 700 Laser Scanning Microscope, Jena, Germany). Iba-1 positive cell somata were counted on bright field images obtained with a 20× objective (Nikon Eclipse 80i). […]

[1] = test system: adult mice with global cerebral ischemia; settings: single intraventricular injection of C3a 30 min prior to training, assessed 24 h later; cited from earlier work

C3a: Purified human C3a peptide (Complement Technologies), C3a receptor agonist, amino acid sequence SEQ ID NO: 1
density or average area of VGLUT1+ puncta in CA1 or dentate gyrus (VGLUT1+ puncta): did not find any differences
amnesia induced by global cerebral ischemia [1]: ameliorate amnesia
